# Experimental data as given in patent US6818426B2 (Daicel Chemical Industries, Ltd., priority 2000, dated 2004).
# Tested on: recombinant (R)-2,3-butanediol dehydrogenase, HB101 (pSE-PAD1) cell extract
# Experiment: Substrate specificity of recombinant enzyme, oxidation reaction
# Format: biochemical, Pichia angusta
# Conditions: substrate 50 mM
# Description: The quantification of polypeptide is carried out by a dye-binding method using a protein assay kit from BioRad.
# (§1) The bacterial cells were collected by centrifugal separation and then suspended in 100 mM potassium phosphate buffer (pH 8.0) containing 0.02% 2-mercaptoethanol; the bacterial cells were lysed by the treatment with a closed sonic chamber device UCD-200TM (Cosmo Bio) for 4 minutes. The bacterial cell lysate was separated by centrifugation and the resulting supernatant was recovered as a bacterial cell extract.
row,Compound,HB101 (pSE-PAD1) activity [U/mg]
1,"C[C@@H](O)[C@@H](C)O [(2R,3R)-2,3-butanediol]",1.414
2,(R)-1-amino-2-propanol,0.051
3,"C[C@@H](O)CO [(R)-1,2-propanediol]",1.077
4,CC(=O)C(C)O (stereo not drawn) [3-hydroxy-2-butanone],0.020
5,"C[C@H](O)[C@H](C)O [(2S,3S)-2,3-butanediol]",0.059
6,(R)-2-butanol,0.022
7,(S)-1-amino-2-propanol,0.018
8,(S)-2-butanol,0.024
9,"C[C@H](O)CO [(S)-1,2-propanediol]",0.246
10,"OC[C@H](O)CCl [(S)-3-chloro-1,2-propanediol]",0.057
11,"C[C@@H](O)CCO [(R)-1,3-butanediol]",0.259
12,"CC(O)C(C)O (stereo not drawn) [Meso-2,3-butanediol]",1.163
13,"OC[C@@H](O)CCl [(R)-3-chloro-1,2-propanediol]",0.002
14,"C[C@H](O)CCO [(S)-1,3-butanediol]",0.042

# Same assay, conditions: substrate 50 mM, glycerol = 100%
row,Compound,HB101 (pSE-PAD1) Relative activity [%]
1,"C[C@@H](O)[C@@H](C)O [(2R,3R)-2,3-butanediol]",620
2,(R)-1-amino-2-propanol,22.2
3,"C[C@@H](O)CO [(R)-1,2-propanediol]",473
4,CC(=O)C(C)O (stereo not drawn) [3-hydroxy-2-butanone],8.8
5,"C[C@H](O)[C@H](C)O [(2S,3S)-2,3-butanediol]",26.1
6,(R)-2-butanol,9.6
7,(S)-1-amino-2-propanol,8.0
8,(S)-2-butanol,10.7
9,"C[C@H](O)CO [(S)-1,2-propanediol]",108
10,"OC[C@H](O)CCl [(S)-3-chloro-1,2-propanediol]",24.8
11,"C[C@@H](O)CCO [(R)-1,3-butanediol]",114
12,"CC(O)C(C)O (stereo not drawn) [Meso-2,3-butanediol]",509
13,"OC[C@@H](O)CCl [(R)-3-chloro-1,2-propanediol]",0.9
14,"C[C@H](O)CCO [(S)-1,3-butanediol]",18.3

# Same assay, conditions: substrate 100 mM
row,Compound,HB101 (pSE-PAD1) activity [U/mg]
1,OCC(O)CO [Glycerol],0.228
2,"CCC(O)CO (racemic) [(RS)-1,2-butanediol]",0.200

# Same assay, conditions: substrate 100 mM, glycerol = 100%
row,Compound,HB101 (pSE-PAD1) Relative activity [%]
1,OCC(O)CO [Glycerol],100
2,"CCC(O)CO (racemic) [(RS)-1,2-butanediol]",87.6

# Tested on: E. coli HB101 cell-free extract prepared in the absence of plasmid
# Experiment: Host only cell-free extract, reduction reaction
# Format: biochemical
# Conditions: substrate 20 mM
# Description: as §1
row,Compound,Host only activity [U/mg]
1,CCC(C)=O [2-butanone],0.002
2,"CC(=O)C(C)=O [2,3-butanedion]",0.018
3,CC(=O)C(C)O (stereo not drawn) [3-hydroxy-2-butanone],0.009
4,CC(=O)CO [Hydroxyacetone],0
5,CC(=O)CCO [4-hydroxy-2-butanone],0.006

# Tested on: (R)-2,3-butanediol dehydrogenase
# Experiment: Substrate specificity of purified (R)-2,3-butanediol dehydrogenase (dehydrogenation activity)
# Format: biochemical, Pichia angusta
# Conditions: substrate 500 mM; glycerol dehydrogenation activity with NAD+ as coenzyme taken as 100; ND: not detectable
# Description: The enzyme obtained in Example 1 was allowed to react with various reagents of 500 mM, and then the dehydrogenation activity was assayed.
row,Compound,Relative activity [%]
1,OCC(O)CO [Glycerol],100
2,"CC(O)CCO (stereo not drawn) [1,3-butanediol]",58
3,"CCC(O)CO (stereo not drawn) [1,2-butanediol]",130
4,"CC(O)CO (stereo not drawn) [1,2-propanediol]",700
5,"CC(O)C(C)O (stereo not drawn) [2,3-butanediol]",3030

# Tested on: (R)-2,3-butanediol dehydrogenase derived from Pichia angusta
# Experiment: Coenzyme usability
# Format: biochemical
# Conditions: NADP+ in oxidation reaction, NADPH in reduction reaction
# Text: However, regardless of the usability of NADP^+ and NADPH, an enzyme having the above-mentioned physicochemical properties (1) to (3), preferably (1) to (6), and even more preferably (1) to (9) is included in the present invention.
row,Compound,Usability as a coenzyme (in words)
1,NC(=O)c1ccc[n+]([C@@H]2O[C@H](COP(=O)([O-])OP(=O)(O)OC[C@H]3O[C@@H](n4cnc5c(N)ncnc54)[C@H](OP(=O)(O)O)[C@@H]3O)[C@@H](O)[C@H]2O)c1 [NADP^+],substantially impossible
2,NC(=O)C1=CN([C@@H]2O[C@H](COP(=O)(O)OP(=O)(O)OC[C@H]3O[C@@H](n4cnc5c(N)ncnc54)[C@H](OP(=O)(O)O)[C@@H]3O)[C@@H](O)[C@H]2O)C=CC1 [NADPH],substantially impossible

# Tested on: (R)-2,3-butanediol dehydrogenase
# Experiment: Behavior of (R)-2,3-butanediol dehydrogenase to reagents (residual glycerol dehydrogenase activity)
# Format: biochemical, Pichia angusta
# Conditions: not given
# Description: After treated with various reagents at 30° C. for 10 minutes, glycerol dehydrogenase activity was assayed.
row,Compound,Residual activity [%]
1,[Cl][Ni][Cl] [nickel chloride],99
2,O=C(O)CI [iodoacetic acid],91
3,[Ca+2].[Cl-].[Cl-] [calcium chloride],105
4,[Cl-].[Cl-].[Mg+2] [magnesium chloride],105
5,[Cl-].[Cl-].[Zn+2] [zinc chloride],113
6,manganese chloride,105
7,[Ba+2].[Cl-].[Cl-] [barium chloride],112

# Same assay, conditions: reagent 0.1 mM, 30° C. for 10 minutes; glycerol dehydrogenase activity
row,Compound,Residual activity [%]
1,"O=C(O)c1cc[c]([Hg][Cl])cc1 [PCMB, p-chloromercuribenzoic acid]",0

# Same assay, conditions: reagent 1 mM, 30° C. for 10 minutes; glycerol dehydrogenase activity
row,Compound,Residual activity [%]
1,"O=C(O)c1cc(SSc2ccc([N+](=O)[O-])c(C(=O)O)c2)ccc1[N+](=O)[O-] [DTNB, 5,5′-dithiobis (2-nitrobenzoic acid)]",59
2,[Cl][Hg][Cl] [mercury chloride],0
3,"O=C(O)CN(CCN(CC(=O)O)CC(=O)O)CC(=O)O [EDTA, ethylenediaminetetraacetic acid]",93
4,c1cnc2c(c1)ccc1cccnc12 [o-phenanthroline],0
5,[Cl][Fe]([Cl])[Cl] [iron (III) chloride],0
6,NNc1ccccc1 [Phenylhydrazine],110
7,"c1ccc(-c2ccccn2)nc1 [2,2′-dipyridyl]",0
8,[Cl][Co][Cl] [cobalt chloride],102
9,[Cl][Cu][Cl] [copper chloride],0
10,[Cl][Fe][Cl] [iron (II) chloride],163
11,[Cl-].[Li+] [lithium chloride],101

# Same assay, conditions: treated at 30° C. for 10 minutes
row,Compound,Inhibition of the enzyme by reagent (in words)
1,[Cl][Hg][Cl] [mercury chloride],markedly inhibited
2,"O=C(O)CN(CCN(CC(=O)O)CC(=O)O)CC(=O)O [EDTA, ethylenediaminetetraacetic acid]",not
3,c1cnc2c(c1)ccc1cccnc12 [o-phenanthroline],markedly inhibited
4,[Cl][Fe]([Cl])[Cl] [iron (III) chloride],markedly inhibited
5,"c1ccc(-c2ccccn2)nc1 [2,2′-dipyridyl]",markedly inhibited
6,[Cl][Cu][Cl] [copper chloride],markedly inhibited
7,"O=C(O)c1cc[c]([Hg][Cl])cc1 [PCMB, p-chloromercuribenzoic acid]",markedly inhibited

# Tested on: E. coli HB101 cell-free extract prepared in the absence of plasmid
# Experiment: not given
# Format: biochemical
# Conditions: not given
# Description: as §1
row,Compound,Host only activity [U/mg]
1,(R)-1-amino-2-propanol,0.007
2,(R)-2-butanol,0
3,(S)-1-amino-2-propanol,0.007
4,(S)-2-butanol,0

# Same assay, conditions: oxidation reaction; substrate 50 mM
row,Compound,Host only activity [U/mg]
1,"C[C@@H](O)[C@@H](C)O [(2R,3R)-2,3-butanediol]",0
2,"C[C@@H](O)CO [(R)-1,2-propanediol]",0
3,CC(=O)C(C)O (stereo not drawn) [3-hydroxy-2-butanone],0.006
4,"C[C@H](O)[C@H](C)O [(2S,3S)-2,3-butanediol]",0
5,"C[C@H](O)CO [(S)-1,2-propanediol]",0
6,"OC[C@H](O)CCl [(S)-3-chloro-1,2-propanediol]",0.001
7,"C[C@@H](O)CCO [(R)-1,3-butanediol]",0
8,"CC(O)C(C)O (stereo not drawn) [Meso-2,3-butanediol]",0
9,"OC[C@@H](O)CCl [(R)-3-chloro-1,2-propanediol]",0
10,"C[C@H](O)CCO [(S)-1,3-butanediol]",0

# Same assay, conditions: oxidation reaction; substrate 100 mM
row,Compound,Host only activity [U/mg]
1,OCC(O)CO [Glycerol],0
2,"CCC(O)CO (racemic) [(RS)-1,2-butanediol]",0.002

# Tested on: recombinant (R)-2,3-butanediol dehydrogenase, HB101 (pSE-PAD1) cell extract
# Experiment: Substrate specificity of recombinant enzyme, reduction reaction
# Format: biochemical, Pichia angusta
# Conditions: substrate 20 mM
# Description: as §1
row,Compound,HB101 (pSE-PAD1) activity [U/mg]
1,CCC(C)=O [2-butanone],0.008
2,"CC(=O)C(C)=O [2,3-butanedion]",1.906
3,CC(=O)C(C)O (stereo not drawn) [3-hydroxy-2-butanone],0.696
4,CC(=O)CO [Hydroxyacetone],0.364
5,CC(=O)CCO [4-hydroxy-2-butanone],0.011

# Same assay, conditions: substrate 20 mM, dihydroxyacetone = 100%
row,Compound,HB101 (pSE-PAD1) Relative activity [%]
1,CCC(C)=O [2-butanone],0.8
2,"CC(=O)C(C)=O [2,3-butanedion]",195
3,CC(=O)C(C)O (stereo not drawn) [3-hydroxy-2-butanone],71.2
4,CC(=O)CO [Hydroxyacetone],37.2
5,CC(=O)CCO [4-hydroxy-2-butanone],1.1

# Tested on: (R)-2,3-butanediol dehydrogenase
# Experiment: Stereoselectivity of purified (R)-2,3-butanediol dehydrogenase
# Format: biochemical, Pichia angusta
# Conditions: not given
# Description: The enzyme obtained in Example 1 was allowed to react with each of the two isomers 1,2-propanediol and 2,3-butanediol (500 mM each).
row,Compound,Relative activity [%]
1,"C[C@@H](O)CO [(R)-1,2-propanediol]",2000
2,"C[C@H](O)CO [(S)-1,2-propanediol]",400
3,"C[C@H](O)CO [(S)-2,3-propanediol]",160
4,"C[C@@H](O)CO [(R)-2,3-propanediol]",6100

# Same assay, conditions: substrate 500 mM; activity to glycerol taken as 100
row,Compound,Relative activity [%]
1,OCC(O)CO [Glycerol],100

# Biological target: glycerol dehydrogenase produced by Escherichia coli (Escherichia coli W-1485) (Escherichia coli, UniProt P0A9S5)
# Experiment: not given
# Conditions: J. Biol. Chem., 259:2124-2129, 1984; cited from earlier work
# glycerol dehydrogenase produced by Escherichia coli (Escherichia coli W-1485), sequence (P0A9S5 whole entry): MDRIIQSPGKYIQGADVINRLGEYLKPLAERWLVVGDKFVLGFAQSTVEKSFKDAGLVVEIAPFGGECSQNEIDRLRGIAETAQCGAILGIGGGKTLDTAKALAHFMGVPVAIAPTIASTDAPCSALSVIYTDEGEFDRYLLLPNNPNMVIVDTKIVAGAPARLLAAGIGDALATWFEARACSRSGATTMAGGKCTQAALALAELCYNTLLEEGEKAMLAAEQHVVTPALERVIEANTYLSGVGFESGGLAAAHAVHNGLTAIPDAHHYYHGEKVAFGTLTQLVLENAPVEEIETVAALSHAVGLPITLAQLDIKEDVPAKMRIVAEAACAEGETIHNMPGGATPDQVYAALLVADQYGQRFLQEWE
row,Compound,Vmax [U/mg protein]
1,"C[C@@H](O)[C@@H](C)O [(2R,3R)-2,3-butanediol]",28.0
